Reference: ChEMBL document CHEMBL1201862, “PubChem BioAssay data set” (2004)
Values joined by “and” are separate entries in the source; they are usually repeats but may differ in a detail not shown here. Equal entries are not always repeated. Active and inactive are the calls of the source.

Test system: H4
Assay: Luminescence Cell-Based Dose Response HTS to Identify Activators of 5'UTR Stem-Loop Driven Prion Protein mRNA Translation in H4 Neuroglioblastoma Cells. [Related pubchem assays: 1829 (Project Summary), 1814 (Primary HTS)]
Assay type: functional
Conditions: Homo sapiens

Row | SMILES | EC50
1 | COc1ccc(C(=O)OCc2csc(C)n2)c(O)c1 | 79.1 µM (active)
2 | Cc1cc(C)nc(Nc2n[nH]c(COc3ccccc3)n2)n1 | > 120 µM (not active)
3 | Cc1cc(/C=C(\C#N)C(=O)NCC2CCCO2)c(C)n1-c1ccc(Cl)cc1 (stereo not given) | 8.94 µM (active)

Test system: not listed separately
Assay: Luminescence Cell-Based Dose Retest to Confirm Inhibitors of Cancer Stem Cells. [Related pubchem assays (depositor defined):AID2717, AID2721]
Assay type: functional
Conditions: Homo sapiens

Row | SMILES | AC50
4 | C[C@H]1CN([C@@H](C)CO)C(=O)Cc2cc(NC(=O)CCC(F)(F)F)ccc2O[C@H]1CN(C)Cc1ccc(-c2ccccc2)cc1 | 4.88 µM (active)
5 | CN(CC(=O)Nc1ccc(Cl)c(Cl)c1)CC(=O)Nc1ccc2c(c1)OCO2 | 10.2 µM (active)
6 | CC(=O)Nc1ccc(OCC(O)CN2CCN(c3cc(Cl)ccc3C)CC2)cc1 (stereo not given) | 1.77 µM (active)
7 | COc1ccc2c(c1)[nH]c1c(=O)n(/N=C/C3C(C)C=C(C)CC3C)c(=O)[nH]c12 (stereo not given) | > 100 µM (inactive)
8 | O=C(CN(c1ccc(Cl)cc1)S(=O)(=O)c1ccc(Cl)c([N+](=O)[O-])c1)NCCc1ccc(F)cc1 | 2.15 µM (active)
9 | Cc1ccccc1CSc1ccc(-c2ccc3c(c2)OCO3)nn1 | 6.68 µM (active)
10 | CC(=O)NC1=C(C#N)C(c2ccccc2)c2c(ccc3ccccc23)O1 (stereo not given) | 0.733 µM (active)

Test system: not listed separately
Assay: Luminescence Cell-Based Dose Confirmation HTS to Identify Activators of 5'UTR Stem-Loop Driven Alpha-Synuclein mRNA Translation in H4 Neuroglioblastoma Cells. [Related pubchem assays: 1829 (Project Summary), 1814 (Primary HTS)]
Assay type: functional
Conditions: not given

Row | SMILES | EC50
11 | COc1ccc(C(=O)OCc2csc(C)n2)c(O)c1 | 40.5 µM (active)
12 | Cc1cc(C)nc(Nc2n[nH]c(COc3ccccc3)n2)n1 | 4.85 µM (active)
13 | Cc1cc(/C=C(\C#N)C(=O)NCC2CCCO2)c(C)n1-c1ccc(Cl)cc1 (stereo not given) | 10 µM (active)

Test system: not listed separately
Assay: Luminescence Cell-Based Dose Response HTS to Identify Activators of Luciferase Translation or Activity in H4 […] Cells. [Related pubchem assays: 1829 (Project Summary), 1814 (Primary HTS)]
Assay type: functional
Conditions: not given

Row | SMILES | EC50
14 | COc1ccc(C(=O)OCc2csc(C)n2)c(O)c1 | > 120 µM (not active)
15 | Cc1cc(C)nc(Nc2n[nH]c(COc3ccccc3)n2)n1 | 21.8 µM (active)
16 | Cc1cc(/C=C(\C#N)C(=O)NCC2CCCO2)c(C)n1-c1ccc(Cl)cc1 (stereo not given) | 30.1 µM (active)

Target: Cytochrome P450 2C9 (Homo sapiens, UniProt P11712)
Sequence (P11712 whole entry): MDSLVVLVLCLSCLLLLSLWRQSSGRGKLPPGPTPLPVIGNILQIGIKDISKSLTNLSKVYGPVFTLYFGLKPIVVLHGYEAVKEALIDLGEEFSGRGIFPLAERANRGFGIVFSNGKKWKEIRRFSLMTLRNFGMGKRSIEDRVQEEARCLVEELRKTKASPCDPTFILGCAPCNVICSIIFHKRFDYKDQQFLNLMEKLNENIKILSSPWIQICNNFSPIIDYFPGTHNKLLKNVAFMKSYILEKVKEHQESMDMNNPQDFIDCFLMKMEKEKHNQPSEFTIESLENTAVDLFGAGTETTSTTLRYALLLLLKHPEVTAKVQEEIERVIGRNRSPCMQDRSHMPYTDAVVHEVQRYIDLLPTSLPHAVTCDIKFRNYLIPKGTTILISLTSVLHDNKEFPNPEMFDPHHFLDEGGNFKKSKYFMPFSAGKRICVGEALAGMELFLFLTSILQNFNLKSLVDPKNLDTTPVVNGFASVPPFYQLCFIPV
Conditions: not given

Row | SMILES | AC50
17 | O=c1onc2cnc3ccccc3n12 | 39.8 µM (inconclusive)
18 | COc1ccc(CNc2nc3nc4c(c(O)n3n2)CCC4)cc1 | 22.4 µM (inconclusive)
19 | COc1ccc(/C=N/OCc2nc3c4c(ncn3n2)Oc2ccc3ccccc3c2C4c2ccccc2)cc1 (stereo not given) | 1.26 µM (inconclusive)
20 | Cn1cnnc1SCC(=O)n1c2ccccc2c2ccccc21 | 0.00562 µM (inconclusive)

Target: Cytochrome P450 3A4 (Homo sapiens, UniProt P08684);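 further: CYP3A4 tested as one member of a cytochrome P450 panel screen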
Sequence (P08684 whole entry): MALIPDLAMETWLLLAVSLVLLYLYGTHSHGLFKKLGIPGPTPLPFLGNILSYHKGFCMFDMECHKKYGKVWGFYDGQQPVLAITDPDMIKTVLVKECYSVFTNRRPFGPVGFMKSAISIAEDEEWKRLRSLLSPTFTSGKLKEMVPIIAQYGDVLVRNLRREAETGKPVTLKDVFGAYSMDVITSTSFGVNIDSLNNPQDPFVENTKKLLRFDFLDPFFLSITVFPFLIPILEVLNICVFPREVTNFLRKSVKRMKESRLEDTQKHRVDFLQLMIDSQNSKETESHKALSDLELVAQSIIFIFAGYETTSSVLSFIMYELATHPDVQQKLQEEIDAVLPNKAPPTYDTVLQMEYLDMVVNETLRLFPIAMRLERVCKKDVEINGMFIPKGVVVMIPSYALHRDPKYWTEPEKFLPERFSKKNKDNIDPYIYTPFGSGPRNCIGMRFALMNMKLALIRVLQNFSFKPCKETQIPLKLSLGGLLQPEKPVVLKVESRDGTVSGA
Conditions: not given

Row | SMILES | AC50
21 | O=c1c(-c2ccccc2)nc2cnc(N3CCOCC3)nc2n1-c1ccccc1 | 20 µM (inconclusive)
22 | COCCNC(=O)COc1ccc(OCCNC[C@@H](O)COc2ccccc2)cc1 | 31.6 µM (inconclusive)
23 | O=c1onc2cnc3ccccc3n12 | 31.6 µM (inconclusive)
24 | COc1ccc(CNc2nc3nc4c(c(O)n3n2)CCC4)cc1 | 39.8 µM (inconclusive)
25 | COc1ccc(/C=N/OCc2nc3c4c(ncn3n2)Oc2ccc3ccccc3c2C4c2ccccc2)cc1 (stereo not given) | 39.8 µM (inconclusive)
26 | Cn1cnnc1SCC(=O)n1c2ccccc2c2ccccc21 | 25.1 µM (inconclusive)
27 | COCC(=O)N1CCC[C@@]2(CCN(Cc3ccc(C#N)cc3)C2)C1 | 12.6 µM (inconclusive)
28 | N=C(Nc1ccc(I)cc1)NC1C2CC3CC(C2)CC1C3 (stereo not given) | 15.8 µM (inconclusive)
29 | CCN1C(=O)[C@H]2[C@H]3[C@H](O)[C@H](O)C/C(=N/O[C@@H](C)c4cn([C@H](CO)Cc5ccccc5)nn4)[C@@H]3CC[C@@H]2C1=O | 3.16 µM (inconclusive) and 5.01 µM (inconclusive)

Target: T1, Cytochrome P450 1A2 (Homo sapiens, UniProt P05177);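 further: PubChem cytochrome P450 panel assay, CYP1A2 panel member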
T1 sequence (P05177 whole entry): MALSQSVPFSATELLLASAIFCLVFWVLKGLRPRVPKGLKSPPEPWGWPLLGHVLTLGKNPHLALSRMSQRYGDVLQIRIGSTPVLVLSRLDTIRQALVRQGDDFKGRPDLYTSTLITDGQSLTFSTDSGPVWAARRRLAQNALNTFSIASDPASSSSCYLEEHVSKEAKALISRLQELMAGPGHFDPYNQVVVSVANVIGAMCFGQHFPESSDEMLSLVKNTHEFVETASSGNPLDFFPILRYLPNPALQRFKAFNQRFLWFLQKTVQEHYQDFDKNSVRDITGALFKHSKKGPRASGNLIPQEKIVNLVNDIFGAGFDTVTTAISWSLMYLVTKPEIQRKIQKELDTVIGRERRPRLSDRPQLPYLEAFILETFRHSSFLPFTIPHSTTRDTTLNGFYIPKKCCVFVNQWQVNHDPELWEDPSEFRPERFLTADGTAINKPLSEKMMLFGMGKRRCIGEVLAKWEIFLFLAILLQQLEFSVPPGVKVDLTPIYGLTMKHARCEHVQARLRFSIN
Conditions: not given

Row | SMILES | AC50
30 | N=C(Nc1ccc(I)cc1)NC1C2CC3CC(C2)CC1C3 (stereo not given) | 39.8 µM (inconclusive)
